Among the data in the RepoRT retention time repository are LC retention time values, retold here.

A short description of this data set: RP, Waters CORTECS UPLC C18, 100 × 2.1 mm, 1.6 µm, 40 °C, 0.4 mL/min, estimated dead time 0.55 min; A: water + 0.1% formic acid, pH 3; B: acetonitrile + 0.1% formic acid, pH 3; gradient (min/%B) 0/5 1.12/5 6.41/99.5 10.01/99.5. Particulars: stereoisomer not certain.

For the molecule `CCC1CCCC(OC2CCC(N(C)C)C(C)O2)C(C)C(=O)C2=CC3C(C=CC4CC(OC5OC(C)C(OC)C(OC)C5OC)CC43)C2CC(=O)O1` (stereo not drawn) [Spinosad A & D], the LC retention time is 4.76 min. Next, `COc1cc(OC)nc(Oc2cccc(Oc3nc(OC)cc(OC)n3)c2C(=O)[O-])n1.[Na+]` [Bispyribac sodium salt]: 4.63 min. Next, `C=CCNC(=O)c1c([Si](C)(C)C)sc(C)c1C` [Silthiofam]: 5.36 min. Next, `CCCCCCCCC[n+]1cccc(S(=O)(=O)[O-])c1` [C9-APS]: 3.99 min; `CCCCCCCCCCCCCC(O)CC(=O)OC(CC(=O)[O-])C[N+](C)(C)C` [[(3R)-3-Hydroxyhexadecanoyl]-L-carnitine]: 5.1 min. As to `O=C(NC(=O)c1c(F)cccc1F)Nc1ccc(Cl)cc1` [Diflubenzuron], the LC retention time is 5.11 min.

Consider `O=C(O)C(=O)Cc1ccccc1` [Phenylpyruvic acid], for which the LC retention time was 2.29 min. As for `OC1COC(O)C(O)C1O` (stereo not drawn) [ARABINOSE], the figure is 0.798 min; as for `CCCCCC=CCC=CCC=CCC=CCCCC(=O)OC(CC(=O)[O-])C[N+](C)(C)C` [Arachidonyl-L-carnitine], 5.35 min; as for `CC(CC(=O)O)C1CCC2C3CCC4CC(O)CCC4(C)C3CC(O)C12C` (stereo not drawn) [Nor-Desoxycholic Acid], 4.88 min. As to `CC(CCC(=O)NCC(=O)O)C1CCC2C3C(O)CC4CC(O)CCC4(C)C3CC(O)C12C` (stereo not drawn) [Glycocholic acid hydrate], the LC retention time is 4.08 min.

`CC1(C)CCC(=Cc2ccc(Cl)cc2)C1(O)Cn1cncn1` (stereo not drawn) [Triticonazole]: the LC retention time was 4.76 min.

On to `O=C(O)c1ccc[nH]1` [PYRROLE-2-CARBOXYLATE], for which the LC retention time was 0.766 min. Turning to `CCCCC(O)(Cn1cncn1)c1ccc(Cl)cc1Cl` (stereo not drawn) [Hexaconazole], the LC retention time is 5.17 min.

Take `CNC(=O)CSP(=S)(OC)OC` [Dimethoate]: the LC retention time was 3.27 min. As for `Cc1ccc(NC(=O)N(C)C)cc1Cl` [Chlorotoluron], the figure is 4.15 min; as for `N[C@@H](Cc1ccc(O)c([N+](=O)[O-])c1)C(=O)O` [3-NITRO-L-TYROSINE], 1.5 min; as for `CC(CCC(=O)NCC(=O)O)C1CCC2C3CC(O)C4CC(O)CCC4(C)C3CCC12C` (stereo not drawn) [Glycohyodeoxycholic acid], 4.08 min.

In the case of `O=C(NC(=O)c1c(F)cccc1F)Nc1ccc(Oc2ccc(C(F)(F)F)cc2Cl)cc1F` [Flufenoxuron], the LC retention time was 6.08 min. As to `Cc1cc2nc3[nH]c(=O)[nH]c(=O)c3nc2cc1C` [LUMICHROME], the LC retention time was 3.26 min.

`CCOP(=O)(SC(C)CC)N1CCSC1=O` (stereo not drawn) [Fosthiazate]: the LC retention time is 4.22 min. Next, `CC(C)(C)c1ccc(CSc2cnn(C(C)(C)C)c(=O)c2Cl)cc1` [Pyridaben]: 6.5 min. Next, `Nc1cc(O)cc(C(=O)O)c1` [3-AMINO-5-HYDROXYBENZOATE]: 0.722 min. As for `Cc1cc2nc3c(=O)[nH]c(=O)nc-3n(CC(O)C(O)C(O)COP(=O)(O)OP(=O)(O)OCC3OC(n4cnc5c(N)ncnc54)C(O)C3O)c2cc1C` (stereo not drawn) [FAD], the figure is 2.34 min; as for `O=C(O)CCCCCCCC(O)C(O)CCCCCCO` (stereo not drawn) [Aleuritic acid], 3.52 min.

Regarding `CN1COCN(Cc2cnc(Cl)s2)C1=N[N+](=O)[O-]` [Thiametoxam], the LC retention time was 2.87 min. For `O=C(O)c1c[nH]c2ccccc12` [Indole-3-carboxylic acid], the LC retention time is 3.21 min.

Turning to `CNCCc1c[nH]c2ccccc12` [N-METHYLTRYPTAMINE], the LC retention time was 2.54 min. On to `CNC(=O)CSP(=O)(OC)OC` [Omethoate], for which the LC retention time was 1.75 min. Take `OC(Cn1cncn1)(c1ccc(F)cc1)c1ccccc1F` (stereo not drawn) [Flutriafol]: the LC retention time was 4.2 min.

On to `CSCCC(NC(C)=O)C(=O)O` (stereo not drawn) [N-ACETYLMETHIONINE], for which the LC retention time is 2.34 min.

Turning to `CCC(C)C(=O)NCC(=O)O` (stereo not drawn) [N-(2-Methylbutyryl)glycine], the LC retention time was 2.27 min. Next, `NC(Cc1cc(I)c(Oc2ccc(O)c(I)c2)c(I)c1)C(=O)O` (stereo not drawn) [LIOTHYRONINE]: 3.71 min; `CON(C)C(=O)Nc1ccc(Cl)c(Cl)c1` [Linuron]: 4.8 min. As for `O=C(O)c1cc(=O)c2cccc(O)c2[nH]1` [XANTHURENATE], the figure is 2.15 min; as for `Clc1ccc(C2(Cn3cncn3)OCCO2)c(Cl)c1` [Azaconazole], 4.32 min. As for `O=C(NC(=O)c1c(F)cccc1F)Nc1cc(Cl)c(F)c(Cl)c1F` [Teflubenzuron], the LC retention time was 5.7 min.

For `CCCOC(=O)NCCCN(C)C` [Propamocarb], the LC retention time was 1.97 min. `CCCCC(=O)OC(CC(=O)[O-])C[N+](C)(C)C` [Valeryl-L-carnitine]: the LC retention time is 2.66 min. With `Nc1ccccc1C(=O)CC(N)C(=O)O` (stereo not drawn) [KYNURENINE], the LC retention time was 1.19 min. Next, `CNC(=O)N(C)c1nc2ccccc2s1` [Methabenzthiazurone]: 4.12 min.

As for `CCS(=O)(=O)c1cccnc1S(=O)(=O)NC(=O)Nc1nc(OC)cc(OC)n1` [Rimsulfuron], the LC retention time was 4.11 min.

Regarding `COP(=S)(OC)Oc1c(Cl)cc(C)cc1Cl` [Tolclosof methyl], the LC retention time was 5.72 min. `Cc1nn(-c2cc(NS(C)(=O)=O)c(Cl)cc2Cl)c(=O)n1C(F)F` [Sulfentrazone]: the LC retention time was 4.21 min. Next, `CC(C)(C)C(O)C(Cc1ccc(Cl)cc1)n1cncn1` (stereo not drawn) [Paclobutrazol]: 4.7 min; `NC(=O)c1ccccc1O` [SALICYLAMIDE]: 2.88 min; `CC(C)OC(=O)C(C(=O)OC(C)C)=C1SCCS1` [Isoprothiolane]: 5.21 min. Regarding `O=C(O)C=Cc1c[nH]c2ccccc12` [3-Indoleacrylic acid], the LC retention time is 3.58 min.

For the molecule `Cn1c(=O)[nH]c2ncn(C)c2c1=O` [PARAXANTHINE], the LC retention time was 2.15 min. Regarding `CCC(C)(CC)c1cc(NC(=O)c2c(OC)cccc2OC)on1` [Isoxaben], the LC retention time was 5.08 min. As for `COP(=S)(OC)Oc1nc(Cl)c(Cl)cc1Cl` [Chlorpyriphos-methyl], the figure is 5.73 min; as for `Nc1c(O)cccc1C(=O)O` [3-HYDROXYANTHRANILATE], 0.722 min; as for `COCC(=O)N(c1c(C)cccc1C)N1CCOC1=O` [Oxadixyl], 3.8 min. Take `CCCCCCCCCCCCCCC[n+]1cccc(S(=O)(=O)[O-])c1` [C15-APS]: the LC retention time was 5.78 min.

For `COC(=O)Nc1nc2ccccc2[nH]1` [Carbendazim], the LC retention time was 2.38 min.

As to `CC(=O)N[C@@H](Cc1ccc(O)cc1)C(=O)O` [N-Acetyl-L-tyrosine], the LC retention time was 2.29 min. Next, `CCC(=O)OC(CC(=O)[O-])C[N+](C)(C)C` [Propionyl-L-carnitine]: 0.871 min. Turning to `CC(C)N(C(=O)COc1nnc(C(F)(F)F)s1)c1ccc(F)cc1` [Flufenacet], the LC retention time is 5.22 min. Next, `Nc1nc2ncc(CNc3ccc(C(=O)NC(CCC(=O)O)C(=O)O)cc3)nc2c(=O)[nH]1` (stereo not drawn) [FOLATE]: 2.38 min. With `CC(C)C1CCC(Cc2ccc(Cl)cc2)C1(O)Cn1cncn1` (stereo not drawn) [Ipconazole], the LC retention time is 5.48 min. As for `COc1cc(OC)nc(NC(=O)NS(=O)(=O)N(C)S(C)(=O)=O)n1` [Amidosulfuron], the figure is 4.16 min. `Nc1cnn(-c2ccccc2)c(=O)c1Cl` [Chloridazon]: the LC retention time was 3.17 min. With `CC(C)CCCC(C)C1CCC2C3=CC=C4CC(O)CCC4(C)C3CCC21C` (stereo not drawn) [7-dehydrocholesterol], the LC retention time is 7.48 min. Regarding `COC=C(C(=O)OC)c1ccccc1COc1cccc(C(F)(F)F)n1` [Picoxystrobin], the LC retention time was 5.45 min. As for `O=C1CC[C@@H](C(=O)O)N1` [L-Pyroglutamic acid], the LC retention time was 0.71 min.

As for `COc1nc(NC(C)C)nc(NC(C)C)n1` [Prometon], the LC retention time was 3.54 min. In the case of `COC(=O)C=C(C)OP(=O)(OC)OC` [Mevinphos], the LC retention time is 3.41 min. As for `CCCCCCSCC(NC(=O)CCC(N)C(=O)O)C(=O)NCC(=O)O` (stereo not drawn) [S-HEXYL-GLUTATHIONE], the LC retention time is 3.31 min.

For the molecule `CCOC(=O)NCCOc1ccc(Oc2ccccc2)cc1` [Fenoxycarb], the LC retention time is 5.19 min.

As to `O=[N+]([O-])c1cc(C(F)(F)F)c(Cl)c([N+](=O)[O-])c1Nc1ncc(C(F)(F)F)cc1Cl` [Fluazinam], the LC retention time was 5.97 min. As for `CC1C(=O)Nc2ccccc21` (stereo not drawn) [3-METHYL-2-OXINDOLE], the figure is 3.39 min; as for `CC12CC1(C)C(=O)N(c1cc(Cl)cc(Cl)c1)C2=O` (stereo not drawn) [Procymidone], 5.21 min.

Turning to `OC(c1ccc(Cl)cc1)(c1cncnc1)c1ccccc1Cl` (stereo not drawn) [Fenarimol], the LC retention time was 4.86 min.

For the molecule `O=Cc1ccc(O)cc1` [4-HYDROXYBENZALDEHYDE], the LC retention time was 2.13 min. Next, `COP(=O)(OC)SCn1c(=O)oc2cc(Cl)cnc21` [Azamethiphos]: 3.91 min; `NC(Cc1cc(I)c(Oc2cc(I)c(O)c(I)c2)c(I)c1)C(=O)O` (stereo not drawn) [THYROXINE]: 3.97 min.

Regarding `CON=C(C1=NOCCO1)c1ccccc1Oc1ncnc(Oc2ccccc2Cl)c1F` [Fluoxastrobin], the LC retention time is 5.22 min.

In the case of `c1coc(-c2nc3ccccc3[nH]2)c1` [Fuberidazole], the LC retention time was 2.63 min.
